Results taken from paper PMC7098370 (Toxicological Sciences, 2020).
Read-outs that look alike come from different tables or passages of the source. Marks after values point to notes of the source that are not given here.

Experiments:
[1] = Plasma toxicokinetic study; format: in vivo, rat; settings: for C max / K el / t 1/2 / Bioavailability (absolute): 10 mg test item/kg PO (2.48 mg Co/kg); for Bioavailability (absolute): vs CoCl2 IV
[2] = Mass balance study: urinary and fecal Co excretion after single oral gavage; format: in vivo, rat; settings: single oral bolus 10 mg/kg bw (2.48 mg Co/kg bw), 72 h
[3] = Target organ study: tissue distribution of cobalt after 90-day oral exposure; format: in vivo, rat; settings: 90-day exposure to 7.44 mg Co/kg bw/day
Crl:CD(SD) rats = test: Subchronic 90-day oral RDT study with reproductive toxicity screening; format: in vivo, rat; settings: for erythroid hyperplasia in the bone marrow, incidence: 90 days; for body weight at autopsy reduced: 90-day exposure; for dose level from which hematological parameters were significantly affected: 90-day oral
rats [4] = settings: oral, ref Speijers et al. (1982), cited from earlier work
[5] = oral administration; ref Kirchgessner et al., 1994; cited from earlier work
[6] = 0.08–0.19 mg Co/kg bw/day, 3-month, ref Tvermoes et al., 2014, cited from earlier work
rats [7] = settings: cited from earlier work
female mice = settings: 15-day exposure, ref Finley et al. (2012), Shrivastava et al., 1996; cited from earlier work
[8] = tested on: children with sickle cell anemia; settings: 1.4–1.8 mg Co/kg/day, ref Gross et al., 1955, Kriss et al.; cited from earlier work
[9] = Bioelution in simulated gastric fluid
[10] = Bioelution in simulated intestinal fluid; settings: simulated intestinal fluid pH 7.4, 2 h
[11] = cobalt dichloride hexahydrate vs tricobalt tetraoxide
[12] = females, 0.74 mg Co/kg bw/day, end of 90-day oral exposure, experimental group
[13] = females, 2.48 mg Co/kg bw/day, end of 90-day oral exposure, experimental group
[14] = females, 7.44 mg Co/kg bw/day, end of 90-day oral exposure, experimental group
[15] = females, 7.44 mg Co/kg bw/day, recovery group, end of 28-day recovery period
[16] = females, 7.44 mg Co/kg bw/day, recovery group, end of 90-day oral exposure
[17] = males, 0.74 mg Co/kg bw/day, end of 90-day oral exposure, experimental group
[18] = males, 2.48 mg Co/kg bw/day, end of 90-day oral exposure, experimental group
[19] = males, 7.44 mg Co/kg bw/day, end of 90-day oral exposure, experimental group
[20] = males, 7.44 mg Co/kg bw/day, recovery group, end of 28-day recovery period
[21] = males, 7.44 mg Co/kg bw/day, recovery group, end of 90-day oral exposure
[22] = listed as Co Dichloride Hexahydrate

O.O.O.O.O.O.[Cl-].[Cl-].[Co+2] [CoCl2, Cobalt dichloride hexahydrate]
C max ([1]; females): 2.61 ng/mL | K el ([1]; females): 0.0508 h⁻¹ | t 1/2 ([1]; females): 13.7 h | Bioavailability (absolute) ([1]; females): ~12% | Bioavailability (absolute) ([1]; females, listed as CoCl2.6H2O): 11.7 (absolute) % | C max ([1]; males): 2.51 ng/mL | K el ([1]; males): 0.0489 h⁻¹ | t 1/2 ([1]; males): 14.2 h | Bioavailability (absolute) ([1]; males): approximately 7% | Bioavailability (absolute) ([1]; males, listed as CoCl2.6H2O): 6.81 (absolute) % | Bioavailability calculated from AUC as % of CoCl2 IV AUC, average of m + f: absolute bioavailability ([1]; oral, rats, average of males and females): Absolute bioavailability 9.3% | oral bioavailability ([1]; single oral bolus, rats, males and females not distinguished): ≤ 12% | Fecal Excretion (%) ([2]; females): 98.5 % of Co applied | Sum of Urinary and Fecal Excretion (%) ([2]; females): 110.7 % of Co applied | Urinary Excretion (%) ([2]; females): 12.2 % of Co applied | Fecal Excretion (%) ([2]; males): 82.4 % of Co applied | Sum of Urinary and Fecal Excretion (%) ([2]; males): 99.5 % of Co applied | Urinary Excretion (%) ([2]; males): 17.1 % of Co applied | elevation of tissue Co concentration vs control, most tissues and organs [3]: around 20 fold | erythroid hyperplasia in the bone marrow, incidence (Crl:CD(SD) rats; 2.48 mg Co/kg bw/day, females): 7/10 | erythroid hyperplasia in the bone marrow, incidence (Crl:CD(SD) rats; 2.48 mg Co/kg bw/day, males): 4/10 | erythroid hyperplasia in the bone marrow, incidence (Crl:CD(SD) rats; 7.44 mg Co/kg bw/day, both sexes): 7/10 | premature deaths (Crl:CD(SD) rats; 90-day oral gavage, all doses): None of the animals treated with any dose of CoCl2 died prematurely | LOAEL (systemic) (Crl:CD(SD) rats; 90-day oral gavage, rats): 2.5 mg Co/kg bw/day | NOAEL (reproductive) (Crl:CD(SD) rats; 90-day oral gavage, rats): > 7.5 mg Co/kg bw/day | difference in RDT lowest observed adverse effect level (factor) (Crl:CD(SD) rats; [11]): 310 | HGB, %Diff vs control (Crl:CD(SD) rats; [12]): +0.9% | HGB, mean (Crl:CD(SD) rats; [12]): 9.62 mmol/L | RBC, %Diff vs control (Crl:CD(SD) rats; [12]): +0.6% | RBC, mean (Crl:CD(SD) rats; [12]): 8.38 ×10E6/µl | Reti, %Diff vs control (Crl:CD(SD) rats; [12]): −18.9% | Reti, mean (Crl:CD(SD) rats; [12]): 12 %0 of RBC | HGB, %Diff vs control (Crl:CD(SD) rats; [13]): +0.3% | HGB, mean (Crl:CD(SD) rats; [13]): 9.56 mmol/L | RBC, %Diff vs control (Crl:CD(SD) rats; [13]): −2.6% | RBC, mean (Crl:CD(SD) rats; [13]): 8.11 ×10E6/µl | Reti, %Diff vs control (Crl:CD(SD) rats; [13]): +33.1% | Reti, mean (Crl:CD(SD) rats; [13]): 19.7 %0 of RBC | body weight at autopsy reduced (Crl:CD(SD) rats; females, 7.44 mg Co/kg bw/day): 9% | HGB, %Diff vs control (Crl:CD(SD) rats; [14]): +13.4% | HGB, mean (Crl:CD(SD) rats; [14]): 10.81 mmol/L | RBC, %Diff vs control (Crl:CD(SD) rats; [14]): +9.8% | RBC, mean (Crl:CD(SD) rats; [14]): 9.15 ×10E6/µl | Reti, %Diff vs control (Crl:CD(SD) rats; [14]): +4.1% | Reti, mean (Crl:CD(SD) rats; [14]): 15.4 %0 of RBC | HCT, mean (Crl:CD(SD) rats; [15]): • 45.02 • .841% | HGB, mean (Crl:CD(SD) rats; [15]): • 9.56 • .936 mmol/l | RBC, mean (Crl:CD(SD) rats; [15]): • 8.01 • .948 ×10E6/µl | Reti, mean (Crl:CD(SD) rats; [15]): • 15 • .232 %0 of RBC | HCT, mean (Crl:CD(SD) rats; [16]): • 52.3 ^** • .0025% | HGB, mean (Crl:CD(SD) rats; [16]): • 11.1 ^** • .0017 mmol/l | RBC, mean (Crl:CD(SD) rats; [16]): • 9.648 ^* • .030 ×10E6/µl | Reti, mean (Crl:CD(SD) rats; [16]): • 15.6 • .933 %0 of RBC | body weight reduced at the end of the 4-week recovery period (Crl:CD(SD) rats; females, 7.44 mg Co/kg bw/day, test day 118): 13% | dose level from which hematological parameters were significantly affected (Crl:CD(SD) rats; females): 7.44 mg/kg bw/day | changes in hematological parameters compared with control (Crl:CD(SD) rats; male rats, 90-day exposure at 7.44 mg Co/kg bw/day): up to 30% | HCT, %Diff vs control (Crl:CD(SD) rats; [17]): +1.2% | HCT, mean (Crl:CD(SD) rats; [17]): 50.51% | HGB, %Diff vs control (Crl:CD(SD) rats; [17]): +1.4% | HGB, mean (Crl:CD(SD) rats; [17]): 10.50 mmol/L | PLT, %Diff vs control (Crl:CD(SD) rats; [17]): −13.5% | PLT, mean (Crl:CD(SD) rats; [17]): 793.6 ×10E3/µl | RBC, %Diff vs control (Crl:CD(SD) rats; [17]): −1.4% | RBC, mean (Crl:CD(SD) rats; [17]): 9.33 ×10E6/µl | Reti, %Diff vs control (Crl:CD(SD) rats; [17]): +7.8% | Reti, mean (Crl:CD(SD) rats; [17]): 15.2 %0 of RBC | HCT, %Diff vs control (Crl:CD(SD) rats; [18]): +10.3% | HCT, mean (Crl:CD(SD) rats; [18]): 55.07% | HGB, %Diff vs control (Crl:CD(SD) rats; [18]): +10.7% | HGB, mean (Crl:CD(SD) rats; [18]): 11.46 mmol/L | PLT, %Diff vs control (Crl:CD(SD) rats; [18]): −13.9% | PLT, mean (Crl:CD(SD) rats; [18]): 789.2 ×10E3/µl | RBC, %Diff vs control (Crl:CD(SD) rats; [18]): +9.2% | RBC, mean (Crl:CD(SD) rats; [18]): 10.33 ×10E6/µl | Reti, %Diff vs control (Crl:CD(SD) rats; [18]): −23.4% | Reti, mean (Crl:CD(SD) rats; [18]): 10.8 %0 of RBC | body weight at autopsy reduced (Crl:CD(SD) rats; males, 7.44 mg Co/kg bw/day): 11% | HCT, %Diff vs control (Crl:CD(SD) rats; [19]): +24.2% | HCT, mean (Crl:CD(SD) rats; [19]): 61.98% | HGB, %Diff vs control (Crl:CD(SD) rats; [19]): +25.6% | HGB, mean (Crl:CD(SD) rats; [19]): 13.00 mmol/L | PLT, %Diff vs control (Crl:CD(SD) rats; [19]): −30.5% | PLT, mean (Crl:CD(SD) rats; [19]): 637.1 ×10E3/µl | RBC, %Diff vs control (Crl:CD(SD) rats; [19]): +18.9% | RBC, mean (Crl:CD(SD) rats; [19]): 11.25 ×10E6/µl | Reti, %Diff vs control (Crl:CD(SD) rats; [19]): −25.5% | Reti, mean (Crl:CD(SD) rats; [19]): 10.5 %0 of RBC | HCT, mean (Crl:CD(SD) rats; [20]): • 49.58 • .334% | HGB, mean (Crl:CD(SD) rats; [20]): • 10.64 • .087 mmol/l | PLT, mean (Crl:CD(SD) rats; [20]): • 917.6 • .551 ×10E3/µl | RBC, mean (Crl:CD(SD) rats; [20]): • 9.086 • .373 ×10E6/µl | Reti, mean (Crl:CD(SD) rats; [20]): • 15.1 • .0544 %0 of RBC | HCT, mean (Crl:CD(SD) rats; [21]): • 58.68** • .002% | HGB, mean (Crl:CD(SD) rats; [21]): • 12.74** • .0015 mmol/l | PLT, mean (Crl:CD(SD) rats; [21]): • 727.2 • .223 ×10E3/µl | RBC, mean (Crl:CD(SD) rats; [21]): • 10.89** • .0022 ×10E6/µl | Reti, mean (Crl:CD(SD) rats; [21]): • 15.6 • .400 %0 of RBC | dose level from which hematological parameters were significantly affected (Crl:CD(SD) rats; males): 2.48 mg Co/kg bw/day | Acute LD50 (mg Co/kg bw) (rats [4]): 190 mg Co/kg bw | Acute LD50 (mg substance/kg bw) (rats [4]): below 1000 mg substance/kg bw | Acute LD50 (mg substance/kg bw) (rats [4]; [22]): 766 [Speijers et al. (1982)] mg substance/kg bw | absorbed Co excreted in the feces via the bile [5]: around 1% | absorption of Co ([6]; men): 20% | absorption of Co ([6]; women): 45% | dose at which adverse cardiac effects were observed (rats [7]; male SD rats, 3-month exposure, ref Domingo et al., 1984): 32 mg Co/kg bw/day | daily dose at which hematological effects were reported (rats [7]; rats, 7 days, ref Shrivastava et al., 2010): 12.5 mg Co/kg/day | dose at which histopathological changes in the thyroid were reported (female mice): approximately 50 mg Co/kg bw/day | thyroid effects [8]: decrease in iodine uptake and the development of goiters | difference in in vitro bioaccessibility (factor) [9, 11]: 440 | Bioelution of Co in gastric fluid (% release), 2 h ([9]; simulated gastric fluid pH 1.5, 2 h, 37°C): 98.5 % release | Bioelution of Co in intestinal fluid (% release) [10]: 79 (2 h) % release | Bioelution of Co in intestinal fluid / cobalt release (µg Co/g sample) [10, 22]: 198 700 (2 h) µg Co/g sample
